Values joined by “and” are separate entries in the source; they are usually repeats but may differ in a detail not shown here. Equal values may be shown once. “Also recorded” adds a separate entry of the source.

These results are taken from patent US12134788B2, “Engineered prephenate dehydrogenases and arogenate dehydrogenases and methods of using the same” (Wisconsin Alumni Research Foundation, priority 2017, dated 2024).

Test [1] concerns Methanosaeta harundinacea MhTyrAp variant Q227E. Description: Kinetic analysis of MhTyrAp Q227E mutant. Type of test: biochemical. The procedure:
FIGS. 14A-14B show a kinetic analysis of MhTyrAp wild-type and Q227E mutant enzymes. Kinetic analysis was performed with MhTyrAp wild-type (filled circle) and Q227E mutant (open square) enzymes using various concentrations of prephenate (FIG. 14A) and arogenate (FIG. 14B). Initial velocity values at each substrate concentration were fit to the Michaelis-Menten equation using Origin software. Kinetic analyses were conducted for MhTyrA wild-type using 3.41 μg of purified recombinant enzyme, and 4.56 μg and 2.28 μg of purified recombinant Q227E using prephenate and arogenate, respectively.
(§1) ADH and PDH assays were performed using purified recombinant enzymes for SsTyrA and MhTyrA Wt and Q227E mutant, while the E. coli cell lysate was used for OiTyrA as expression and purification of this enzyme was unsuccessful. Reactions contained 0.8 mM substrate (arogenate or prephenate) and 0.8 mM cofactor (NADP+ or NAD+) together with reaction buffer (25 mM HEPES pH 7.6, 50 mM KCl, 10% (v/v) ethylene glycol). For OiTyrA assays containing cell lysates, reactions were incubated for 45 minutes and analyzed using HPLC as previously reported (Schenck et al., 2015). For pure enzymes, reactions were monitored every 10-15 seconds for reduced cofactor at A340 nm using a microplate reader (Tecan Genios). Kinetic parameters of purified recombinant enzymes were determined from assays containing varying concentrations of arogenate (39.1 μM-5 mM) or prephenate (39.1 μM-5 mM) substrate and monitored 10-15 seconds for reduced cofactor at A340 nm using a microplate reader (Tecan Genios). Kinetic parameters were determined by fitting initial velocity data to the Michaelis-Menten equation using Origin software (OriginLab) from technical replicate assays (n=3). Arogenate substrate was prepared by enzymatic conversion of prephenate (Sigma-Aldrich). All enzyme assays were conducted at a reaction time and protein concentration that were in the linear range and proportional to reaction velocity.

The target of test [2] is T1, Medicago truncatula MtPDH variant C220D, SEQ ID NO: 1 (Medicago truncatula, UniProt A0A0A0R205, C220D).
T1 sequence (A0A0A0R205 1-268 C220D): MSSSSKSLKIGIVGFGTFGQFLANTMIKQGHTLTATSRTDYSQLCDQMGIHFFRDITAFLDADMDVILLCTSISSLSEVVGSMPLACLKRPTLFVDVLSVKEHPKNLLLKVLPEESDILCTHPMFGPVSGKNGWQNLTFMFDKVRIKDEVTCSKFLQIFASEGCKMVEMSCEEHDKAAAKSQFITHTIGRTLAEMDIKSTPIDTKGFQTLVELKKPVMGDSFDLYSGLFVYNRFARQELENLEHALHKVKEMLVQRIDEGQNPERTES
Description: ADH and PDH assay: steady-state kinetics and Tyr inhibition, MtPDH C220D. The test is classed as biochemical. Conditions: compared to wild-type MtPDH. The procedure:
(§2) Kinetic parameters of purified recombinant proteins were determined from assays conducted at varying arogenate (19.5 μM-5 mM) and prephenate concentration (23.4 μM-6 mM). Standard assay conditions were 25 mM HEPES pH 7.6, 50 mM KCl and 10% (v/v) ethylene glycol, and 0.5 mM NADP^+ with varied substrate, concentrations. Reactions were initiated by addition of enzyme and incubated at 37° C. monitored every 10-15 seconds at […] using a microplate reader (Tecan Genios). Kinetic parameters were determined by fitting initial velocity data to the Michaelis-Menten equation using the Origin software (OriginLab).
(§3) Arogenate was prepared by enzymatic conversion of prephenate (Sigma-Aldrich) as previously reported^56. For Tyr inhibition assays, Tyr was dissolved in a slightly basic solution (0.025 N NaOH) due to solubility issues, thus the concentration of lysis buffer was increased to 500 mM HEPES final concentration to buffer against the changes by addition of Tyr in the reaction. Reactions containing varying amounts of Tyr (10 μM-8 mM) with 0.5 mM NADP^+ and either 1 mM arogenate or 0.8 mM prephenate were monitored as above.

In test [3] the target is T2, MtncADH (Mt5g083530), Medicago truncatula noncanonical arogenate dehydrogenase, wild type (Medicago truncatula, UniProt A0A217FAR3).
T2 construct: wild type
T2 sequence (A0A217FAR3 1-266): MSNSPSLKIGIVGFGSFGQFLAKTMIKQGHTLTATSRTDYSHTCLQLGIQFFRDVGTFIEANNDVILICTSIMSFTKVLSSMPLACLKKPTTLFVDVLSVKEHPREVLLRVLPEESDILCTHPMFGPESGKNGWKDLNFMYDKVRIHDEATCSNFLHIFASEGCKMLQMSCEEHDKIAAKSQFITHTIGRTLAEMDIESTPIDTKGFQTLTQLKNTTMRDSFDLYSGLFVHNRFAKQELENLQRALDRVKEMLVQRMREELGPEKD
Description: ADH and PDH assay: steady-state kinetics and Tyr inhibition, MtncADH wild type. The test is classed as biochemical. Conditions: kcat/Km. The procedure: as §2, §3

Test [4] addresses T3, Glycine max GmncADH variant D218N (Glycine max, UniProt I1M7P5, D218N).
T3 construct: D218N by site-directed mutagenesis
Description: ADH and PDH assay: steady-state kinetics and Tyr inhibition, GmncADH D218N. Conditions: versus wild-type GmncADH. The test is classed as biochemical, Glycine max (soybean). As for the experimental part: as §2, §3

Test [5] concerns Peanut PDH/ADH (AipaensisVYE8T), Arachis ipaensis, wild type. Description: ADH and PDH assay: steady-state kinetics and Tyr inhibition, peanut PDH/ADH. The test is classed as biochemical. The procedure:
as §2, §3

The target in test [6] is T4, Glycine max GmPDH1 variant N222D, SEQ ID NO: 2 (Glycine max, UniProt I1MYY4, N222D).
T4 sequence (I1MYY4 1-271 N222D): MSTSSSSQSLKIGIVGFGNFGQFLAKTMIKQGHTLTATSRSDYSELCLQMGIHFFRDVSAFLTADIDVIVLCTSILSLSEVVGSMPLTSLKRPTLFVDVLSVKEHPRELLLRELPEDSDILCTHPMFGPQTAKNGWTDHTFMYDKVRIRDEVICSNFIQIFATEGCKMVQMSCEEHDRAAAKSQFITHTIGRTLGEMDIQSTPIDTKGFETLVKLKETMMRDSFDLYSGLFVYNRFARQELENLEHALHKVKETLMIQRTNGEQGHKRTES
Description: ADH and PDH assay: steady-state kinetics and Tyr inhibition, GmPDH1 N222D. Type of test: biochemical, Glycine max (soybean). The conditions noted are these: 0.5 mM NADP^+, pH 7.6, 37° C. As for the experimental part: as §2, §3

Test [7] has as its target T5, GmncADH (Gm14g05990), soybean (Glycine max) noncanonical arogenate dehydrogenase, wild type (Glycine max, UniProt I1M7P5).
T5 construct: wild type
T5 sequence (I1M7P5 1-266): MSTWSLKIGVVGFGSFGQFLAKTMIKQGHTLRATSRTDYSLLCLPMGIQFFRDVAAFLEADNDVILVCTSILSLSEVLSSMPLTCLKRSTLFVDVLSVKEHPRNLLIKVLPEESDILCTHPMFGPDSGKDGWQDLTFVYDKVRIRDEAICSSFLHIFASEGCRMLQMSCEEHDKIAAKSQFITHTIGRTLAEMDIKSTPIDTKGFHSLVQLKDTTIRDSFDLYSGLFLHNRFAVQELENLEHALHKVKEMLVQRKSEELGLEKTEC
Description: ADH and PDH assay: steady-state kinetics and Tyr inhibition, GmncADH wild type. The test is classed as biochemical. The conditions noted are these: 0.5 mM NADP^+, pH 7.6, 37° C. The procedure: as §2, §3

The nature of test [8]: PDH assay of microbial TyrA enzymes (Example 2). The test is classed as biochemical. Conditions: 0.8 mM arogenate or prephenate, 0.8 mM cofactor. As for the experimental part: as §1
A short description of test [9]: ADH assay of microbial TyrA enzymes (Example 2). The test is classed as biochemical. The conditions noted are these: ADH activity, NADP+ versus NAD+, 0.8 mM. As for the experimental part:
as §1

For test [10] the following is noted: arogenate versus prephenate, from references 29, 34; cited from earlier work.

T3 sequence (I1M7P5 1-266 D218N): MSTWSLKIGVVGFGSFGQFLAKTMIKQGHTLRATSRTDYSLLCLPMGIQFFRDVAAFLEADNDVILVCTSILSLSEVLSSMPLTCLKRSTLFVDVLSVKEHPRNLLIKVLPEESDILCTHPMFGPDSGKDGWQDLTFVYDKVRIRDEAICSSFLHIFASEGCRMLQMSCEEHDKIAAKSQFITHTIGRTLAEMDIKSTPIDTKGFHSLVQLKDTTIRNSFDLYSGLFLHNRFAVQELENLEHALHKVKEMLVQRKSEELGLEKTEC

As a reminder, the kcat is the maximal rate divided by the concentration of active sites. Broadly, the kcat/Km is the turnover number divided by the Michaelis constant. For orientation: Km means the substrate concentration at which the rate is half of its maximum. For `N[C@@H](CC1(C(=O)O)C=CC(O)C=C1)C(=O)O` (stereo partly shown) [arogenate], in [1], the “fold higher Km than that of wild-type for prephenate” value was found to be 10 fold. For the same molecule, in test [1], the “fold higher catalytic efficiency with arogenate than with prephenate” value was “roughly 2 fold”. Besides, the kcat in [1] (NADP+ cofactor, pH 7.6) came out at 0.704 ± 0.06 s⁻¹; in test [5] (0.5 mM NADP^+, pH 7.6, 37° C.) it was 3.2 ± 0.1 s⁻¹; in [6], 27.8 s⁻¹; in test [7], 27.7 s⁻¹. The kcat/Km in test [1] (NADP+ cofactor, pH 7.6) was 200 M⁻¹ s⁻¹ and 213 ± 10 M⁻¹ s⁻¹; in test [5] (0.5 mM NADP^+, pH 7.6, 37° C.), 11,430 M^−1 s^−1; in [5] (FIG. 7A, with NADP^+), 11.6 mM⁻¹ s⁻¹. Besides, the Km in [1] (NADP+ cofactor, pH 7.6, read-out: Km) was 3.3 mM and 3.29 mM; in [5] (0.5 mM NADP^+, pH 7.6, 37° C.), 0.28 ± 0.03 mM. The “fold lower Km” value in test [2] is recorded as 3 fold. For the same molecule, in test [3], the “fold more efficient (preference) with arogenate over prephenate” value was ~6,200 fold and 6,190 fold. In test [4], the “fold reduction of kcat/Km for ADH” value was around 6 fold.

B1: SsTyrA: TyrA from Sediminispirochaeta smaragdinae DSM 11293 (spirochaetes), recombinant (protein)
chain: MVEHTVGIYGLGRFGSFWAKSLAASGLKVIGYNRSKRALPEGVVSGSETEVLSCNTLFYCVAISSFEEVLSRTAAKIGKHTLVFDTCSVKVEPVRTMERLLPQGCTFAGSHPMFGPDSASEGMDGLPMVLCPGRDDEGKVDFWRHHFSKMGLRVIEITADRHDKEAAYTQGITHVVGRILGELDLHESEIATSGYKRLLQVREQTCNDPLQLFIDLQRYNPYTHGMRMELTSALEQIMTLFAQADLPPDRP
modifications: S. smaragdinae; misc_feature (1)..(251): S. smaragdinae TyrA SsTyrA
notes: TyrA from Sediminispirochaeta smaragdinae DSM 11293 (spirochaetes), recombinant
B1: in [8], the “ADH and PDH activity (in words)” value was “showed ADH activity; also recorded: PDH activity was not detectable”. Also, the “cofactor preference (in words)” value in test [9] is “slight preference for NAD+”.

B2: AaPDH: prephenate dehydrogenase from Aquifex aeolicus, PDB 3GGG (protein)
chain: MQNVLIVGVGFMGGSFAKSLRRSGFKGKIYGYDINPESISKAVDLGIIDEGTTSIAKVEDFSPDFVMLSSPVRTFREIAKKLSYILSEDATVTDQGSVKGKLVYDLENILGKRFVGGHPIAGTEKSGVEYSLDNLYEGKKVILTPTKKTDKKRLKLVKRVWEDVGGVVEYMSPELHDYVFGVVSHLPHAVAFALVDTLIHMSTPEVDLFKYPGGGFKDFTRIAKSDPIMWRDIFLENKENVMKAIEGFEKSLNHLKELIVREAEEELVEYLKEVKIKRMEI
modifications: A. aeolicus; misc_feature (1)..(281): A.aeolicus AaPDH
notes: prephenate dehydrogenase from Aquifex aeolicus, PDB 3GGG
B2: the “substrate specificity (in words)” value in [10] was “prefers prephenate”.

B3: OiTyrA: TyrA from Ochrobactrum intermedium LMG 3301 (α-proteobacteria), E. coli cell lysate (protein)
chain: MRPLRGQSMSRDRNQHTKIGIIGFGAFGQLIARHLNPYFRLYAYDPAADLEQTALMHGVALASVEQVAACDIVILATPVATLESVVDKIAPHLCPGALVLDVGSVKVGPADIMRRGLPAHVDIVATHPLFGPQSARHGIAGLKIAVCPVRGTRFHRVAAFLKKHLSLNVIVTTPEDHDREAAMVQGLTHLIARVLVQMEPLPTRMTTKSFDLLMQAVSMVRHDAPEVFQAIEHANPYAPQVRRHFFALADQINEELARVQPMAAREEAA
modifications: O. intermedium; misc_feature (1)..(269): O. intermedium TyrA OiTyrA
notes: TyrA from Ochrobactrum intermedium LMG 3301 (α-proteobacteria), E. coli cell lysate
As to B3, the “ADH and PDH activity (in words)” value in test [8] is listed as “had ADH but not PDH activity”. In test [9], the “cofactor preference (in words)” value is “strongly preferred NAD+”.
